Five compounds from patent US8084621B2, “3-Pyrrolo[b]cyclohexylene-2-dihydroindolinone derivatives and uses thereof” (Jiangsu Simcere Pharmaceutical R&D Co. Ltd., priority 2006, dated 2011) can be followed below.

Assay [1] concerns Human Leukemia Line (K562). Nature of the assay: Tumor cell proliferation assay (MTT), K562. It is filed as cell-based. To be noted: for inhibition at 10 µM: concentration of 10^−5 mol/L, preliminary screening, 72 hours, read-out: Inhibition rate % K562; for IC50: secondary screening, 48 hours. An excerpt:
(§1) The assay used generally is the blue tetrazolium bromide (MTT) method. […] The amount of formazan can be detected by the microplate reader through the absorption value at 570 nm. The amount of formazan product generated is proportional to the number of living cells in the sample, so the OD value may reflect the number of living cells and the ability of a test drug to inhibit or kill cells. The MTT assay may be used in determining the ability of different compounds of the present invention to inhibit one or more cancer cells proliferation. Similar assays can be designed along the same lines for any cancer cell using techniques well known in the art.
(§2) The assay used generally is the blue tetrazolium bromide (MTT) method. […] Intracellular purple formazan salt crystals can be solved in DMSO and the absorption value at 570 nm is detected by the microplate reader, then the number of living cells can be detected indirectly. So MTT assay may be used to determine the ability of a compound of the present invention to inhibit cell proliferation. Similar assays can be designed along the same lines for any cancer cell using techniques well known in the art.
2.2.3 Human Leukemia Line (K562)
The cells of the 2.2.1, 2.2.2, 2.2.3, 2.2.4, 2.2.5 cultured with RPMI 1640 containing 12% calf serum in the condition of 37° C., 5% CO2.
(§3) 2.3.1 Cell seeding: Trypsinize the cell by 0.05% trypsin-EDTA and add RPMI 1640 medium (DMEM or 5A) containing 12% calf serum. Count the number, then dilute to 1.67×10^4/ml. Add 180 ul/well to the 96 well plate (3000 cells/well).
(§4) 2.3.2 Culture: cells are incubated for 24 hours at 37° C. under 5% CO2.
(§5) 2.3.3 Preliminary screening: The compounds are firstly diluted to 0.1 mol/L with DMSO, and then diluted to three concentrations of 10^−5 mol/L, 10^−6 mol/L and 10^−7 mol/L. Add 20 ul test compounds to the 96 well plate and incubate for 72 hours. Each group has three parallel wells and all experiments repeat three times. Each inhibition ratio is calculated, then an average value of three times is taken as the measured value. 2.3.4 Staining 2.3.4.1 Attached cell: add 20 ul/well MTT to the 96-well plates; incubate for 4 hours in the incubator. Pour out the culture medium in the well and add 100 ul/well DMSO. Shake the plate for 5 min. 2.3.4.2 Suspension cell: add 20 ul/well MTT to the 96-well plates; incubate for 4 hours in the incubator. Add 50 ul/well 20% SDS and incubate for overnight in the incubator. 2.3.5 Reading the plates: read the absorbance A570-A630 with the Infinite M200 microtiter plate reader. Calculate the inhibition ratio of the test compounds. 2.3.6 Secondary screening: the compounds whose inhibition ratio is greater than 50% at the concentrations of 10^−5 mol/L in the preliminary screening will be picked out for Secondary screening. Dilute these compounds to ten concentrations: 10^−5 mol/L, 0.5×10^−5 mol/L, 10^−6 mol/L, 0.8×10^−6 mol/L, 0.6×10^−6 mol/L, 0.4×10^−6 mol/L, 0.2×10^−6 mol/L, 10^−7 mol/L, 0.8×10^−7 mol/L and 0.4×10^−7 mol/L. Add 20 ul test compound solution to the 96 well plate and incubate for 48 hours. Each group has three parallel wells and all experiments repeat for three times. Read the plates and calculate the inhibition ratio according to the preliminary screening method. 2.3.7 Calculate the Inhibition Ratio of Cell Proliferation and the IC50
(§6) According to the inhibition ratio of cell proliferation at the different concentrations of the compound, inhibition ratio of 50% of the test compound is calculated through the logarithm of the concentration of the compound with the Logit [I] linear regression, and an average value of three times is taken as the measured value of a sample.

In assay [2] the test system is Human Breast Cancer Cell Line (MCF-7). Nature of the assay: Tumor cell proliferation assay (MTT), MCF-7. The class given is cell-based. The settings on record: for inhibition at 10 µM: MCF7, concentration of 10^−5 mol/L, preliminary screening, 72 hours, read-out: Inhibition rate % MCF-7; for IC50: MCF7, secondary screening, 48 hours.
Source text: as §1, §2
2.2.9 Human Breast Cancer Cell Line (MCF-7);
The cells of 2.2.8, 2.2.9 cultured in DMEM/High glucose medium containing 12% calf serum in the condition of 37° C., 5% CO2.
as §3, §4, §5, §6

The structures appear in SMILES notation.

`CCN(CC)CCNC(=O)c1c(C)[nH]c2c1CCC/C2=C1/C(=O)Nc2ccc(F)cc21` [I-2, N-(2-(diethylamino)ethyl)-2-methyl-7-[1,2-dihydro-5-fluoro-2-oxo-3H-indol-(Z)-3-ylidene]-4,5,6,7-tetrahydro-1H-indole-3-carboxamide]: the inhibition at 10 µM in assay [1] was found to be 95.3%; in assay [2], 55.4%. Further, the IC50 in assay [1] came out at 3.51 µM; in assay [2], 7.88 µM.

`Cc1[nH]c2c(c1C(=O)NCC(O)CN1CCCCC1)CCC/C2=C1/C(=O)Nc2ccc(F)cc21` (centres unmarked) [I-74, N-(2-hydroxy-3-(piperidin-1-yl)propyl)-2-methyl-7-[1,2-dihydro-5-fluoro-2-oxo-3H-indol-(Z)-3-ylidene]-4,5,6,7-tetrahydro-1H-indole-3-carboxamide]: in assay [1], the inhibition at 10 µM turned out to be 95.1% and the IC50 came out at 0.93 µM. In assay [2], the inhibition at 10 µM worked out at 70.7% and the 50% inhibitory concentration (IC50) turned out to be 7.01 µM.

In the case of `CCN(CC)CCNC(=O)c1c(C)[nH]c2c1CCC/C2=C1/C(=O)Nc2ccccc21` [I-5, N-(2-(diethylamino)ethyl)-2-methyl-7-[1,2-dihydro-2-oxo-3H-indol-(Z)-3-ylidene]-4,5,6,7-tetrahydro-1H-indole-3-carboxamide], the results for the inhibition at 10 µM in assay [1] and in assay [2] were 93.3% and 50.5%, respectively. Besides, the IC50 in assay [1] was 2.94 µM; in assay [2], 6.94 µM.

Consider `Cc1[nH]c2c(c1C(=O)NCCO)CCC/C2=C1/C(=O)Nc2ccccc21` [I-8, N-(2-hydroxyethyl)-2-methyl-7-[1,2-dihydro-2-oxo-3H-indol-(Z)-3-ylidene]-4,5,6,7-tetrahydro-1H-indole-3-carboxamide], for which the inhibition at 10 µM amounted to 39.4% in assay [1] and 25.2% in assay [2].

`Cc1[nH]c2c(c1C(=O)NCC(O)CN1CCCCC1)CCC/C2=C1/C(=O)Nc2ccccc21` (centres unmarked) [I-73, N-(2-hydroxy-3-(piperidin-1-yl)propyl)-2-methyl-7-[1,2-dihydro-2-oxo-3H-indol-(Z)-3-ylidene]-4,5,6,7-tetrahydro-1H-indole-3-carboxamide]: in assay [1], the inhibition at 10 µM worked out at 94.8% and half-maximal inhibition (IC50) was put at 0.72 µM. In assay [2], the inhibition at 10 µM amounted to 43.4%.
